In patent publication US10716807B2, “Method of treating relapsing-remitting multiple sclerosis using arsenic trioxide” (Medsenic, priority 2017, dated 2020):
Entries after “also recorded” stand apart in the source; their conditions may differ.

Key:
[1] = system: MOG35-55-induced EAE; experiment: MOG35-55-induced prophylactic/therapeutic EAE model; type: in vivo, C57BL/6 mice; conditions: for EAE disease severity compared to the vehicle group / EAE onset compared to the vehicle group: started 7 days before EAE induction
Method: The study objective was to evaluate the effects of arsenic trioxide (1 mg/ml), administered i.v., QD, starting 7 days before EAE induction, on EAE development in the MOG35-55-induced prophylactic/therapeutic EAE model, known as the more robust and direct animal model to trigger and observe the autoimmune cascade involving the central nervous system and ensuing demyelination.
EAE was induced by MOG35-55/CFA immunization and pertussis toxin injection in C57BL/6 mice.
There were 2 experimental groups with 12 mice per group. Mice were treated prophylactically.
The study used a total of 24 female C57BL/6 mice (Taconic Farms, 10 weeks old).
EAE was induced in all mice as follows:
Day 0, Hour 0—Immunization with MOG35-55/CFA
Day 0, Hour 2—Injection of pertussis toxin
Day 1, Hour 0—2nd injection of pertussis toxin (24 hours after initial immunization)
Mice were injected subcutaneously at two sites in the back with the emulsion component (containing MOG35-55) of Hooke Kit™ […] Emulsion PTX, catalog number EK-2110 (Hooke Laboratories, Lawrence Mass.). One site of injection was in the area of upper back, approximately 1 cm caudal of the neck line. The second site was in the area of lower back, approximately 2 cm cranial of the base of the tail. The injection volume was 0.1 mL at each site.
Within 2 hours of the injection of emulsion, and then again 24 hours after the injection of emulsion, the pertussis toxin component of the kit was administered intraperitoneally. The volume of each injection was 0.1 mL.
To optimize disease severity for this particular study, the pertussis toxin was administered at 165 ng/dose for the first injection and 154 ng/dose for the second injection.
There were 2 groups of 12 mice each.
Mice were assigned to groups 7 days before immunization (Day −7), balanced to achieve similar weight at the start of the study.
Treatment was according to Table 1 below.
Dosing of all mice was at the same time (+/−1 hour) on each day.
Dosing of all mice started on Day −7 (7 days before EAE induction) and continued until Day 27.
Group 2 was dosed at 2 mg/kg from Day −7 to Day −1, and at 3 mg/kg until Day 27.
Mice were scored for EAE and weighed until Day 35, the last day of the study.
Readouts were EAE scores and body weight at the end of the study.
Mice were scored daily from Day 7 after immunization until the end of the study, and body weight was measured three times/week (Monday, Wednesday and Friday), starting on Day −7.
Scoring was performed blind, by a person unaware of both treatment and of previous scores for each mouse.
EAE was scored on scale 0 to 5: • 0 No obvious changes in motor functions of the mouse in comparison to non-immunized mice. • When picked up by the tail, the tail has tension and is erect. Hind legs are usually spread apart. When the mouse is walking, there is no gait or head tilting. • 1 Limp tail. • When the mouse is picked up by the tail, instead of being erect, the whole tail drapes over finger. • 2 Limp tail and weakness of hind legs. • When mouse is picked up by tail, legs are not spread apart, but held closer together. When the mouse is observed walking, it has a clearly apparent wobbly walk. • 3 Limp tail and complete paralysis of hind legs (most common). • OR • Limp tail with paralysis of one front and one hind leg. • OR • ALL of: • Severe head tilting, • Walking only along the edges of the cage, • Pushing against the cage wall, • Spinning when picked up by the tail. • 4 Limp tail, complete hind leg and partial front leg paralysis. • Mouse is minimally moving around the cage but appears alert and feeding. • Usually, euthanasia is recommended after the mouse scores level 4 for 2 days. When the mouse is euthanized because of severe paralysis, score of 5 is entered for that mouse for the rest of the experiment. • 5 Complete hind and complete front leg paralysis, no movement around the cage. • OR • Mouse is spontaneously rolling in the cage. • OR • Mouse is found dead due to paralysis. […]

[2] = system: IL-6; experiment: Cytokine production in spleen cell cultures after MOG35-55/CFA immunization (cytokine bead assay); type: in vivo, mice; conditions: spleen cells collected 11 days after immunization, cultured 72 hours with MOG35-55 (0, 0.7, 2.2, 6.7 and 20.0 μg/mL); treatment from Day -16
Method: The objective of this study was to determine the effects of arsenic trioxide on cytokine production by T lymphocytes from draining lymph nodes and spleen after immunization with MOG35-55/CFA.
There were 2 experimental groups with 6 mice/group.
Treatment started on Day −16.
Mice were immunized with MOG35-55/CFA on Day 0.
Eleven days after immunization, mice were euthanized, spleens and lymph nodes collected and cell suspensions prepared. Cell suspensions were cultured for 3 days in the presence of multiple concentrations of MOG35-55. The culture supernatants were collected at the end of this 3-day culture period. The concentrations of 7 cytokines (IL-2, IL-4, IL-6, IL-10, IL-17A, TNF, and IFN-γ) were determined in the culture supernatants using Th1/Th2/Th17 cytokine bead assay (CBA) kit from Becton Dickinson.

[3] = 3 mg/kg, i.v., QD, listed as Arsenic trioxide
[4] = to Day 28 (end of treatment), 3 mg/kg, i.v., QD

arsenic trioxide
Body weight compared to the vehicle treated controls ([1]; 3 mg/kg, i.v., QD): higher body weight
EAE disease severity compared to the vehicle group ([1]; 3 mg/kg, i.v., QD): overall severity was lower; also recorded: reducing disease severity
EAE onset compared to the vehicle group ([1]; 3 mg/kg, i.v., QD): disease onset was postponed; also recorded: efficacious at postponing EAE onset
EAE disease severity compared to the vehicle group [1, 3]: reducing disease severity
EAE onset compared to the vehicle group [1, 3]: efficacious at postponing EAE onset
Efficacy after the treatment was stopped ([1]; 7 days after the treatment was stopped (Day 35)): efficacy was maintained 7 days after the treatment was stopped
Day 27 % body weight +/- SD ([1]; Day 27, 3 mg/kg, i.v., QD): 97.3 +/− 5.1%
End % body weight +/- SD ([1]; Day 35 (end of study), 3 mg/kg, i.v., QD): 93.2 +/− 6.4%
Deaths in group ([1]; group of 12 mice, 3 mg/kg, i.v., QD, death not from EAE nor from i.v. dosing complications): One mouse died
EAE incidence (%) ([1]; to Day 28 (end of treatment), 2 mg/kg Day -7 to -1, then 3 mg/kg to Day 27, i.v., QD): 100%
Mean day of onset +/- SEM (sick mice) [1, 4]: 17.5 ± 1.1 days
Median day of onset (all mice) [1, 4]: 17.0 days
MMS +/- SD (mean maximum score) ([1]; to Day 28 (end of treatment), EAE scale 0 to 5, 3 mg/kg, i.v., QD): 3.41 +/− 0.30
IL-6 concentration in spleen cell cultures [2]: significant reduction of IL-6 concentration
